Test results as given in US20250108064A1, “PHOSPHATE PRODRUGS OF CANNABINOIDS” (priority 2021, published 2025).
In brackets after ≈: the same amount, converted by molar mass.

Assays:
physchem = type: physicochemical; conditions: aqueous buffer, kinetic from dmso stock, PBS pH 7.0-7.3, 1% DMSO, 25° C.; for solubility: nephelometry, 90 min
Procedure: General Experimental: Nephelometry experiments were performed using untreated Corning® Costar® 96-well black polystyrene plates with clear flat bottoms. Sample stock solutions and serial dilutions were prepared with DriSolv® DMSO purchased from MilliporeSigma. All 100-fold dilutions and replicate experiments were prepared using Gibco® Dulbecco's phosphate-buffered saline (DPBS, no calcium, no magnesium) with a pH range of 7.0-7.3 as aqueous media. […] Nephelometry data was obtained using a NEPHELOstar® microplate reader and processed with MARS data analysis software from BMG LabTech.
Procedure for Nephelometry Experiments: Tested compounds were dissolved in 100% DMSO to make stock solutions of specified concentrations, ranging from 10 mM minimum up to 50 mM maximum. The sample then underwent serial dilution in a 96-well plate (Corning® Costar®). Well A1 of the plate contained 100% DMSO. […] Using a 12 channel multichannel pipette, 2.5 μL of sample from row A was transferred to each well in row B through row H of the plate. Next, 30 μL of PBS (pH=7.0-7.3) was added to row B through row H, providing each well with 32.5 μL. The plate was then incubated for 30 sec with shaking. Finally, 217.5 μL of PBS buffer was added to row B through row H, and the entire plate was incubated with shaking at 25° C. for 90 min. Note: The final volume of DMSO in actual experiments with PBS buffer was 1% throughout the plate. After 90 min, the 96-well plate was analyzed with a NEPHELOstar® instrument and the data was processed with MARS data analysis software.

[1] = Simulated Gastric Fluid stability assay; type: in vitro ADME; conditions: simulated gastric fluid (SGF) with pepsin, pH 1.2; SGF pH about 1.2 with pepsin, 37° C.; read-out: T½ in SGF (converted)
Procedure: General Experimental: Simulated Gastric Fluid (SGF) is a pH 1.2 HCl solution with purified pepsin (800-2500 units of activity) (Test Solutions, The United States Pharmacopoeia (USP), 2008). SGF was prepared according to a procedure described in Test Solution—USP and other published articles (Bioorganic Chemistry, 49 (2013), 40-48). Sodium chloride 0.20 g and purified pepsin 0.32 g (Sigma), derived from porcine stomach mucosa with an activity of 800 to 2500 units per mg of protein, were dissolved in 0.70 mL hydrochloric acid and sufficient water to make 100 mL. […] The SGF solution prepared was used for in vitro studies to evaluate the prodrug stability.
At specified time intervals, aliquots (100 μL) were withdrawn and added to pre-cooled 100% acetonitrile (200 μL spiked with ISTD) and mixed well by vortex mixing for 2 min. The mixture was centrifuged at 13000 rpm for 15 min at 4° C.

[2] = Liver microsome stability assay (HLM); type: in vitro ADME; conditions: human, microsomes, pH 7.4; 3 μM test compound, NADPH; read-out: T½ in HLM
Procedure: (§1) General Experimental: Human and mouse liver microsomes were purchased from Xenotech at 20 mg/mL. NADPH (Sigma-Aldrich) 10 mM stocks were prepared in deionized water.
(§2) Procedure for Liver Microsome Stability Assay: Test compounds and positive controls were dissolved in 100% DMSO to make 10 mM stock solutions. Verapamil (Sigma-Aldrich) and diphenhydramine (Sigma-Aldrich) were used as positive controls for both human liver microsomes (HLM) and mouse liver microsomes (MLM). The 10 mM stock solutions of test and control compounds were further diluted in potassium phosphate buffer (100 mM, pH 7.4) to 500 μM to ensure that the organic solvent content was <0.2%. The liver microsome (HLM or MLM) assay was prepared in a 1.5 mL Eppendorf tube with a final volume of 1100 μL for duplicate runs. Each reaction contained phosphate buffer (928.4 μL), liver microsomes (55 μL), and test compound (6.6 μL of 500 μM), resulting in a final concentration of 3 μM for the test compound. The reaction was initiated with 110 μL of 10 mM NADPH. Aliquots (100 μL) were removed in duplicate at 0, 5, 10, 15, and 30 min and quenched in […] of 100% cold methanol which contained internal standard (ISTD: d5-7-ethoxy coumarin 2 μM). The aliquots were centrifuged at 12,000 g for 5 min, and the supernatant was transferred and placed in an LC-MS vial. Each time point was assessed by LC-MS/MS, and the area under the m/z curve (AUC), based on the MRM transition, was integrated w.r.t the ISTD. Positive controls were conducted at a final volume of 550 μL to enable a single run for each time point. Negative controls in the absence of NADPH were performed with the test and control compounds, respectively, at a final volume of 150 μL and measured at the most prolonged time point. Control compounds were processed and analyzed like test compounds. Each time point was run in triplicates on LC-MS/MS followed by in-between blank washes to avoid the carryover and to equilibrate the column. Half-life (T1/2) was calculated using the data obtained from LC-MS/MS and by plotting ln (% remaining of the parent prodrug) versus time and performing linear regression to determine slope. Slope=−k and T1/2=0.693/k for first-order kinetics.

[3] = Liver microsome stability assay (MLM); type: in vitro ADME; conditions: mouse, mouse liver microsomes, pH 7.4; 3 μM test compound, NADPH; read-out: T 1/2 in MLM
Procedure: as §1
as §2, with “Each time point was run in triplicates on LC-MS/MS followed by in-between blank washes to avoid the carryover and to equilibrate the column.” left out, “Slope=−k and T1/2=0.693/k for first-order kinetics.” left out

[4] = Plasma stability (mouse plasma); type: in vitro ADME; conditions: read-out: T½ in mouse plasma (converted)
[5] = daily oral doses of 10 mg/kg chronically administered; cited from earlier work
[6] = Plasma stability assay (human plasma); type: in vitro ADME; conditions: 37° C.; for half-life: read-out: T½ in human plasma (converted)
Procedure: General Experimental: Procaine and Procainamide were purchased from Sigma-Aldrich. Human plasma was obtained from BioIVT (Cat. No. […]2N) and 1X Dulbecco's PBS (pH 7.4, Gibco) was obtained from Thermos Fischer. Stock solutions were prepared in 100% DMSO, and suitable dilutions of target analytes were prepared in methanol for method development.
Procedure for Plasma Stability Assay: Test compounds were dissolved in DMSO to make a stock solution of 10 mM and then diluted to 500 μM in buffer (or 70% MeOH). Human plasma was thawed at ambient temperature and is aliquoted ([…]) to a 1.5 mL Eppendorf tube in duplicates (A and B) for each compound. Plasma was incubated at 37° C. for 10 minutes in an incubator shaker at 150 rpm; the reaction was initiated by the addition of the test compound (6.0 μL) and vortex mixing. The total reaction volume was 1000 μL where the final organic solvent concentrations were 0.6% MeOH and 0.03% DMSO. The spiked plasma samples were incubated at 37° C. for 4 hrs. The reactions were terminated at time points 0, 15, 30, 60, 120, 180, and 240 min by taking a 100 μL aliquot from the test incubation mixture and immediately quenching it in ice-cold acetonitrile containing internal standard (150 μL with 2 μM ISTD), followed by a quick vortex mixing. In addition, matrix blank was prepared by adding acetonitrile solutions containing ISTD to plasma samples without any of the analytes or control compounds. Also, an additional tube was made to measure compound degradation in PBS buffer. The samples were centrifuged at 15000 rpm for 25 min at 4° C. The supernatant was transferred to an LC-MS vial for analysis by LC/MS-MS. Each time point was run in duplicates followed by in-between blank washes to avoid the carryover and to equilibrate the column. Half-life (T1/2) was calculated using the data obtained from LC-MS/MS and by plotting ln (% remaining of the parent prodrug) versus time and performing linear regression to determine slope. Slope=−k and T1/2=0.693/k for first-order kinetics.
These positive controls were run in parallel to test the systems for competency.

Row | Compound | solubility (physchem) [µM] | half-life [2] [min] | half-life [6] [min] | also measured
1 | C=C(C)[C@@H]1CCC(C)=C[C@H]1c1c(O)cc(CCCCC)cc1O [CBD, Cannabidiol, reference compound] | 16.9 ± 0.55 (≈ 5.32 µg/mL) | 5.8 | – | half-life at 2 mM [1]: > 180 min; half-life at 3 μM [3]: 2.9 min; half-life [4]: 576 min; mean plasma concentration [5]: 5.9 to 11.2 ng/mL
2 | C=C(C)[C@@H]1CCC(C)=C[C@H]1c1c(O)cc(CCCCC)cc1OC(=O)COP(=O)(O)O.N.N [7a, 2-(((1′R,2′R)-6-hydroxy-5′-methyl-4-pentyl-2′-(prop-1-en-2-yl)-1′,2′,3′,4′-tetrahydro-[1,1′-biphenyl]-2-yl)oxy)-2-oxoethyl phosphate di-ammonium salt] | > 500 | 59 | – | half-life at 2 mM [1]: 315 min; half-life at 3 μM [3]: 6.1 min; half-life ([6]; unit min): 20 min; half-life ([4]; unit min): 4.5 min
3 | C=C(C)[C@@H]1CCC(C)=C[C@H]1c1c(O)cc(CCCCC)cc1OC(=O)N(C)CCOP(=O)(O)O.N.N [38b, (1′R,2′R)-6-hydroxy-5′-methyl-4-pentyl-2′-(prop-1-en-2-yl)-1′,2′,3′,4′-tetrahydro-[1,1′-biphenyl]-2-yl methyl(2-(phosphonooxy)ethyl)carbamate di-ammonium salt] | – | – | – | solubility at 90 min (physchem): > 500 µM; half-life at 3 μM [2]: 230 min; half-life at 3 μM ([6]; read-out: T½ in human plasma): > 240 min
4 | C=C(C)[C@@H]1CCC(C)=C[C@H]1c1c(O)cc(CCCCC)cc1OC(=O)C1(OP(=O)(O)OC(C)C)CC1.N [14a, 1-((((1′R,2′R)-6-hydroxy-5′-methyl-4-pentyl-2′-(prop-1-en-2-yl)-1′,2′,3′,4′-tetrahydro-[1,1′-biphenyl]-2-yl)oxy)carbonyl)cyclopropyl isopropyl phosphate ammonium salt] | > 500 | 13 | > 180 | –
5 | C=C(C)[C@@H]1CCC(C)=C[C@H]1c1c(O)cc(CCCCC)cc1OC(=O)C1(OP(=O)(O)OCCCCC)CC1.N [14b, 1-((((1′R,2′R)-6-hydroxy-5′-methyl-4-pentyl-2′-(prop-1-en-2-yl)-1′,2′,3′,4′-tetrahydro-[1,1′-biphenyl]-2-yl)oxy)carbonyl)cyclopropyl pentyl phosphate ammonium salt] | 276 ± 4.52 | 24 | 576 | –
6 | C=C(C)[C@@H]1CCC(C)=C[C@H]1c1c(O)cc(CCCCC)cc1OC(=O)C1(OP(=O)(O)OCCCCCC)CC1.N [14d, hexyl (1-((((1′R,2′R)-6-hydroxy-5′-methyl-4-pentyl-2′-(prop-1-en-2-yl)-1′,2′,3′,4′-tetrahydro-[1,1′-biphenyl]-2-yl)oxy)carbonyl)cyclopropyl) phosphate ammonium salt] | 98 ± 1.24 | 32 | > 240 | –
7 | C=C(C)[C@@H]1CCC(C)=C[C@H]1c1c(O)cc(CCCCC)cc1OC(=O)C1(OP(=O)(O)OCCCCCCCCC)CC1.N [14f, 1-((((1′R,2′R)-6-hydroxy-5′-methyl-4-pentyl-2′-(prop-1-en-2-yl)-1′,2′,3′,4′-tetrahydro-[1,1′-biphenyl]-2-yl)oxy)carbonyl)cyclopropyl nonyl phosphate ammonium salt] | 67 ± 5.98 | > 30 | > 240 | –
8 | C=C(C)[C@@H]1CCC(C)=C[C@H]1c1c(O)cc(CCCCC)cc1OC(=O)OCCCOP(=O)(O)O.N.N [29b, (1′R,2′R)-6-hydroxy-5′-methyl-4-pentyl-2′-(prop-1-en-2-yl)-1′,2′,3′,4′-tetrahydro-[1,1′-biphenyl]-2-yl(3-(phosphonooxy)propyl) carbonate di-ammonium salt] | > 500 | 19 | > 240 | –
9 | C=C(C)[C@@H]1CCC(C)=C[C@H]1c1c(O)cc(CCCCC)cc1OC(=O)OCCOP(=O)(O)O.N.N [29a, (1′R,2′R)-6-hydroxy-5′-methyl-4-pentyl-2′-(prop-1-en-2-yl)-1′,2′,3′,4′-tetrahydro-[1,1′-biphenyl]-2-yl(2-(phosphonooxy)ethyl) carbonate di-ammonium salt] | > 500 | 42 | 990 | –
10 | C=C(C)[C@@H]1CCC(C)=C[C@H]1c1c(O)cc(CCCCC)cc1OC(=O)C1(OP(=O)(O)OCCCCCCCCCC)CC1.N [14g, decyl (1-((((1′R,2′R)-6-hydroxy-5′-methyl-4-pentyl-2′-(prop-1-en-2-yl)-1′,2′,3′,4′-tetrahydro-[1,1′-biphenyl]-2-yl)oxy)carbonyl)cyclopropyl) phosphate ammonium salt] | 75 ± 2.14 | > 30 | > 240 | –
